# Source: patent US9617221B2, “Kinase modulators for the treatment of cancer” (Synovo GmbH, priority 2010, dated 2017)
# Tests used:
# Assay type in all cases: cell-based, mice
# B cells = experiment: Proliferation of LPS-stimulated B cells; details: 10 μM
# T cells = experiment: Proliferation of Con A-stimulated T cells; details: 10 μM
# Protocol: (§1) Peritoneal macrophage or splenocytes (lymphocytes and macrophage) were harvested from donor mice using standard techniques. Cells were placed in culture and stimulated with either LPS (10 μg/mL) or concanavalin A 5 μg/mL (Sigma Chemical Co., St Louis, Mo.) in RPMI-1640 medium supplemented with antibiotics, […] 2-mercaptoethanol, 10 mm HEPES buffer and 10% fetal calf serum (FCS) (see Holan et al., 1985) to stimulate macrophage and T-cells respectively. Compounds were added from DMSO stock solutions to a final concentration of 50 μM or less with DMSO not exceeding 1% of total volume. After 72 h, cell supernatant was recovered and the cytokine levels were estimated by ELISA. The effect of compounds on cytokine production was recorded as follows: […]
# IL-10 [1] = experiment: IL-10 production by LPS-stimulated murine peritoneal macrophage (ELISA); details: for IL-10 by ELISA, % of solvent treated control: murine peritoneal macrophage; for IL-10 (LPS, Macrophages), amount of cytokine: 10 μM, 72 h
# Protocol: as §1
# IL-6 = IL-6 production by LPS-stimulated macrophages; details: 10 μM, 72 h
# Protocol: as §1
# IL-2 = IL-2 production by ConA-stimulated T cells; details: 10 μM, 72 h
# Protocol: as §1
# IFN-g = IFN-g production by ConA-stimulated T cells; details: 10 μM, 72 h
# Protocol: as §1
# IL-10 [2] = experiment: IL-10 production by ConA-stimulated T cells; details: 10 μM, 72 h
# Protocol: as §1
# NO = NO production by LPS-stimulated macrophages; details: 10 μM, 72 h
SMILES,"Proliferation (LPS, B cells) (B cells)","Proliferation (Con A, T cells) (T cells)","IL-10 by ELISA, % of solvent treated control (IL-10 [1]; 2 μM inhibitor in medium)","IL-10 by ELISA, % of solvent treated control (IL-10 [1]; 10 μM inhibitor in medium)","IL-10 (LPS, Macrophages), amount of cytokine (IL-10 [1])","IL-10 by ELISA, % of solvent treated control (IL-10 [1]; 50 μM inhibitor in medium)","IL-6 (LPS, Macrophages), amount of cytokine (IL-6)","IL-2 (ConA, T cells), amount of cytokine (IL-2)","IFN-g (ConA, T cells), amount of cytokine (IFN-g)","IL-10 (ConA, T cells), amount of cytokine (IL-10 [2])","NO (LPS, Macrophages), % of control treated with solvent alone (NO)","IL-10 by ELISA, % of solvent treated control (IL-10 [1]; 1.25 μM inhibitor in medium)","IL-10 by ELISA, % of solvent treated control (IL-10 [1]; 5 μM inhibitor in medium)","IL-10 by ELISA, % of solvent treated control (IL-10 [1]; 20 μM inhibitor in medium)"
CC[C@H]1OC(=O)[C@H](C)[C@@H](O)[C@H](C)[C@@H](O[C@@H]2O[C@H](C)C[C@H](N(C)CCCC(=O)OCC(O)CSc3nc(-c4ccc(F)cc4)c(-c4ccnc(NC5CCOCC5)c4)[nH]3)[C@H]2O)[C@](C)(O)C[C@@H](C)CN(C)[C@H](C)[C@@H](O)[C@]1(C)O (stereo partly shown) [Compound 43c],2 % of control treated with solvent alone,113 % of control treated with solvent alone,18 % of solvent treated control,7 % of solvent treated control,7 % of control treated with solvent alone,−4 % of solvent treated control,95 % of control treated with solvent alone,90 % of control treated with solvent alone,72 % of control treated with solvent alone,25 % of control treated with solvent alone,82 % of control treated with solvent alone,–,–,–
CC[C@H]1OC(=O)[C@H](C)[C@@H](O[C@H]2C[C@@](C)(OC)[C@@H](O)[C@H](C)O2)[C@H](C)[C@@H](O[C@@H]2O[C@H](C)C[C@H](N(C)CCCC(=O)OCC(O)CSc3nc(-c4ccc(F)cc4)c(-c4ccnc(NC5CCOCC5)c4)[nH]3)[C@H]2O)[C@](C)(O)C[C@@H](C)CN(C)[C@H](C)[C@@H](O)[C@]1(C)O (stereo partly shown) [Compound 43b],−3 % of control treated with solvent alone,−2 % of control treated with solvent alone,27 % of solvent treated control,−4 % of solvent treated control,−4 % of control treated with solvent alone,−4 % of solvent treated control,94 % of control treated with solvent alone,0 % of control treated with solvent alone,0 % of control treated with solvent alone,−2 % of control treated with solvent alone,31 % of control treated with solvent alone,–,–,–
CC[C@H]1OC(=O)[C@H](C)[C@@H](O[C@H]2C[C@@](C)(OC)[C@@H](O)[C@H](C)O2)[C@H](C)[C@@H](O[C@@H]2O[C@H](C)C[C@H](N(C)CCCCCC(=O)OCCSc3nc(-c4ccc(F)cc4)c(-c4ccnc(NC(C)C)c4)[nH]3)[C@H]2O)[C@](C)(O)C[C@@H](C)CN(C)[C@H](C)[C@@H](O)[C@]1(C)O [Compound 43k],−8 % of control treated with solvent alone,−1 % of control treated with solvent alone,−6 % of solvent treated control,−8 % of solvent treated control,−8 % of control treated with solvent alone,−9 % of solvent treated control,22 % of control treated with solvent alone,0 % of control treated with solvent alone,0 % of control treated with solvent alone,0 % of control treated with solvent alone,−1 % of control treated with solvent alone,–,–,–
CCC(C)Nc1cc(-c2[nH]c(SCC(O)COC(=O)CCCN(C)[C@H]3C[C@@H](C)O[C@@H](O[C@@H]4[C@@H](C)[C@H](O[C@H]5C[C@@](C)(OC)[C@@H](O)[C@H](C)O5)[C@@H](C)C(=O)O[C@H](CC)[C@@](C)(O)[C@H](O)[C@@H](C)N(C)C[C@H](C)C[C@@]4(C)O)[C@@H]3O)nc2-c2ccc(F)cc2)ccn1 (stereo partly shown) [Compound 43d],−3 % of control treated with solvent alone,−2 % of control treated with solvent alone,15 % of solvent treated control,−4 % of solvent treated control,−4 % of control treated with solvent alone,−4 % of solvent treated control,95 % of control treated with solvent alone,0 % of control treated with solvent alone,3 % of control treated with solvent alone,−2 % of control treated with solvent alone,52 % of control treated with solvent alone,–,–,–
CC[C@H]1OC(=O)[C@H](C)[C@@H](O[C@H]2C[C@@](C)(OC)[C@@H](O)[C@H](C)O2)[C@H](C)[C@@H](O[C@@H]2O[C@H](C)C[C@H](N(C)CCCC(=O)OCC(O)CSc3nc(-c4ccc(F)cc4)c(-c4ccnc(NC(C)C)c4)[nH]3)[C@H]2O)[C@](C)(O)C[C@@H](C)CN(C)[C@H](C)[C@@H](O)[C@]1(C)O (stereo partly shown) [Compound 43f],−6 % of control treated with solvent alone,−8 % of control treated with solvent alone,−1 % of solvent treated control,−10 % of solvent treated control,−10 % of control treated with solvent alone,27 % of solvent treated control,30 % of control treated with solvent alone,-1 % of control treated with solvent alone,61 % of control treated with solvent alone,0 % of control treated with solvent alone,2 % of control treated with solvent alone,–,–,–
"CCOC(=O)CCCN(C)C1CC(C)OC(OC2C(C)C(OC3CC(C)(OC)C(O)C(C)O3)C(C)C(=O)OC(CC)C(C)(O)C(O)C(C)N(C)CC(C)CC2(C)O)C1O (stereo not shown) [Compound 27, 4-({2-[2-Ethyl-3,4,10-trihydroxy-13-(5-hydroxy-4-methoxy-4,6-dimethyl-tetrahydro-pyran-2-yloxy)-3,5,6,8,10,12,14-heptamethyl-15-oxo-1-oxa-6-aza-cyclopentadec-11-yloxy]-3-hydroxy-6-methyl-tetrahydro-pyran-4-yl}-methyl-amino)-butyric acid ethyl ester]",–,–,–,–,–,–,–,–,–,–,–,132 % of solvent treated control,106 % of solvent treated control,17 % of solvent treated control
CCC1OC(=O)C(C)C(OC2CC(C)(OC)C(O)C(C)O2)C(C)C(OC2OC(C)CC(N(C)CCCC(=O)OCC3CO3)C2O)C(C)(O)CC(C)CN(C)C(C)C(O)C1(C)O (stereo not shown) [Compound 29],–,–,–,–,–,–,–,–,–,–,–,110 % of solvent treated control,114 % of solvent treated control,106 % of solvent treated control
